According to US20260138978A1, “POSITIVE ALLOSTERIC MODULATORS OF THE MUSCARINIC ACETYLCHOLINE RECEPTOR M1” (Vanderbilt University, priority 2022, published 2026):

Experiments:
human mAChRM1 [1] = target: T1, human mAChRM1 (Homo sapiens, UniProt P11229); assay: mAChR M1 cell-based functional assay (calcium mobilization), positive allosteric modulator activity: increase in the EC20 acetylcholine response; conditions: for Emax: PAM mode; for EC50: increase in the EC20 acetylcholine response, read-out: PAM Activity Human M1 EC50
T1 construct: host or cells: CHO-K1
T1 sequence (P11229 1-460): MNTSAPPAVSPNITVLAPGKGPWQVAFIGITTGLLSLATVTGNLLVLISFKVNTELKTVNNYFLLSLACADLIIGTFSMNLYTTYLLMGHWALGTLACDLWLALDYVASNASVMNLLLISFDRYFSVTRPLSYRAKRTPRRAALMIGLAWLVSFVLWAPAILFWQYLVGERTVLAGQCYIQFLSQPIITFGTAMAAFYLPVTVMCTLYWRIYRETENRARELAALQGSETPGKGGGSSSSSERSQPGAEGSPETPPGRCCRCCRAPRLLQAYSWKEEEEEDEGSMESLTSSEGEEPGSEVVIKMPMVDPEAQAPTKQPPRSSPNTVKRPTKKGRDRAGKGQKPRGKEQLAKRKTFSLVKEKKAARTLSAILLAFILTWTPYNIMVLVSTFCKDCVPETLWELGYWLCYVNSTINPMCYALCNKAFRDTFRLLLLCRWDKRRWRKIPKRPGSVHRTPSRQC
Source text: (§1) Chinese hamster ovary (CHO-K1) cells stably expressing rat (r)M1 were purchased from the American Type Culture Collection and cultured according to their indicated protocol. CHO cells stably expressing human (h)M2, hM3, and hM5 were described previously (Levey, et al., 1991); hM1 and hM4 cDNAs were purchased from Missouri S&T cDNA Resource; rM4 cDNA was provided by T. I. Bonner (National Institutes of Health, Bethesda, MD). rM2 and rM3 were cloned from a rat brain cDNA library and sequence verified. hM1, rM2, rM3, hM4, and rM4 cDNAs were used to stably transfect CHO-K1 cells purchased from the American Type Culture Collection using Lipofectamine 2000. To make stable rM2, hM2, rM3, hM4. and rM4 cell lines for use in calcium mobilization assays, these cells also were stably transfected with a chimeric G-protein (Gqi5) (provided by B. R. Conklin, University of California, San Francisco) using Lipofectamine 2000. rM1, hM1, rM3, hM3, rM5, and hM5 cells were grown in Ham's F-12 medium containing 10% heat-inactivated fetal bovine serum (FBS), 20 mM HEPES, and 50 μg/mL G418 sulfate. rM2-Gqi5, hM2-Gqi5, and hM4-Gqi5 cells were grown in the same medium also containing 500 µg/mL Hygromycin B. Stable rM4-Gqi5 cells were grown in DMEM containing 10% heat-inactivated FBS, 20 mM HEPES, 400 μg/mL G418 sulfate, and 500 μg/mL Hygromycin B.
(§2) For high throughput measurement of agonist-evoked increases in intracellular calcium, CHO-K1 cells stably expressing muscarinic receptors were plated in growth medium lacking G418 and hygromycin at 15,000 cells/[…] in Greiner 384-well black-walled, tissue culture (TC)-treated, clear-bottom plates (VWR). Cells were incubated overnight at 37° C. and 5% CO2. The next day, cells were washed using an ELX 405 (BioTek) with four washes (80 μL) of assay buffer then aspirated to 20 μL. Next, 20 μL of 16 μM Fluo-4/acetoxymethyl ester (Invitrogen, Carlsbad, CA) prepared as a 2.3 mM stock in DMSO and mixed in a 1:1 ratio with 10% (w/v) Pluronic F-127 and diluted in assay buffer was added to the wells and the cell plates were incubated for 50 min at 37° C. and 5% CO2. Dye was removed by washing with the ELX 405 (four 80 μL washes of assay buffer) then aspirated to 20 μL. Compound master plates were formatted in an 11 point CR^c format (1:3 dilutions) in 100% DMSO with a starting concentration of 10 mM using the BRAVO liquid handler (Agilent). Test compound CRCs were then transferred to daughter plates (240 nL) using the Echo acoustic plate reformatter (Labcyte, Sunnyvale, CA) and then diluted into assay buffer ([…]) to a 2× stock using a Thermo Fisher Combi (Thermo Fisher Scientific, Waltham, MA).
(§3) Calcium flux was measured using the Functional Drug Screening System (FDSS) 6000 (Hamamatsu Corporation, Tokyo, Japan) as an increase in the fluorescent static ratio. Compounds were applied to cells (20 μL, 2×) using the automated system of the FDSS 6000 at 4 s into the 300 s protocol and the data were collected at 1 Hz. […] Agonist activity was analyzed as a concentration-dependent increase in calcium mobilization upon compound addition. Emax values for agonist activity are expressed relative to the maximum for acetylcholine. Positive allosteric modulator activity was analyzed as a concentration-dependent increase in the EC20 acetylcholine response. Antagonist activity was analyzed as a concentration-dependent decrease in the EC80 acetylcholine response. Concentration-response curves were generated using a four-parameter logistical equation in XLfit curve fitting software (IDBS, Bridgewater, NJ) for Excel (Microsoft, Redmond, WA) or Prism (GraphPad Software, Inc., San Diego, CA).
Activity (EC50 and Emax) was determined in the mAChRM1 cell-based functional assay as described above and the data are shown in Table 16. The compound numbers correspond to the compound numbers used in Table 15.

human mAChRM1 [2] = target: T1, human mAChRM1; assay: mAChR M1 cell-based functional assay (calcium mobilization), agonist activity upon compound addition, Emax relative to acetylcholine maximum; conditions: for EC50 / Agonist Activity Human M1 EC50: calcium mobilization upon compound addition; for Emax: relative to the maximum for acetylcholine
Source text: Lack of agonist activity may be measured as weak or no increase in calcium fluorescence in mAChRM1-transfected CHO-K1 cells in the presence of the compound, compared to the response of equivalent CHO-K1 cells in the absence of the compound. Lack of mAChRM1 agonist activity may be determined as a percent response relative to acetylcholine. For example, a disclosed compound may have less than or equal to 30%, 25%, 20%, 15%, 10%, 5%, or 1% mAChRM1 agonist activity relative to acetylcholine. A disclosed compound may have substantially no mAChRM1 agonist activity. […] The absence of mAChRM1 agonist activity may contribute to the avoidance of cholinergic adverse effect liability.
as §1, §2
as §3, with “Antagonist activity was analyzed as a concentration-dependent decrease in the EC80 acetylcholine response. Concentration-response curves were generated using a four-parameter logistical equation in XLfit curve fitting software (IDBS, Bridgewater, NJ) for Excel (Microsoft, Redmond, WA) or Prism (GraphPad Software, Inc., San Diego, CA).” left out

Compound | Emax (human mAChRM1 [1]) [%] | EC50 (human mAChRM1 [1]) [nM] | EC50 (human mAChRM1 [2]) [nM] | Emax (human mAChRM1 [2]) [%] | Agonist Activity Human M1 EC50 (human mAChRM1 [2])
[2H]C([2H])([2H])n1cc2c(-c3cc(C)c(CN4Cc5ncccc5C4=O)c(F)c3)ccc(C(C)(C)O)c2n1 (single isomer, unassigned) [Compound 15, 6-(2-fluoro-4-(7-(2-hydroxypropan-2-yl)-2-(methyl-d3)-2H-indazol-4-yl)-6-methylbenzyl)-6,7-dihydro-5H-pyrrolo[3,4-b]pyridin-5-one] | 77 | 81 | 2990 | 41 | 
[2H]C([2H])([2H])n1cc2c(-c3cc(F)c(CN4Cc5ncccc5C4=O)c(C4CC4)c3)ccc(C(C)(C)O)c2n1 (single isomer, unassigned) [Compound 16, 6-(2-cyclopropyl-6-fluoro-4-(7-(2-hydroxypropan-2-yl)-2-(methyl-d3)-2H-indazol-4-yl)benzyl)-6,7-dihydro-5H-pyrrolo[3,4-b]pyridin-5-one] | 78 | 66 | 2060 | 54 | 
[2H]C1([2H])c2ncccc2C(=O)N1Cc1c(F)cc(-c2ccc(C(C)(C)O)c3nn(C)cc23)cc1C1CC1 (single isomer, unassigned) [Compound 143, 6-(2-cyclopropyl-6-fluoro-4-(7-(2-hydroxypropan-2-yl)-2-methyl-2H-indazol-4-yl)benzyl)-6,7-dihydro-5H-pyrrolo[3,4-b]pyridin-5-one-7,7-d2] | 83 | 96 | 5300 | 68 | 
[2H]C1([2H])c2ncccc2C(=O)N1Cc1c(C)cc(-c2ccc(C(C)(C)O)c3nn(C)cc23)cc1F (single isomer, unassigned) [Compound 144, 6-(2-fluoro-4-(7-(2-hydroxypropan-2-yl)-2-methyl-2H-indazol-4-yl)-6-methylbenzyl)-6,7-dihydro-5H-pyrrolo[3,4-b]pyridin-5-one-7,7-d2] | 89 | 101 | 5570 | 58 | 
[2H]C1([2H])c2ncccc2C(=O)N1Cc1c(C)cc(-c2ccc(C(C)(C)O)c3nn(C([2H])([2H])[2H])cc23)cc1F (single isomer, unassigned) [Compound 146, 6-(2-fluoro-4-(7-(2-hydroxypropan-2-yl)-2-(methyl-d3)-2H-indazol-4-yl)-6-methylbenzyl)-6,7-dihydro-5H-pyrrolo[3,4-b]pyridin-5one-7,7-d2] | 65 | 120 | ≥ 10000 | 28 | 
[2H]C1([2H])c2ncccc2C(=O)N1Cc1c(F)cc(-c2ccc(C(C)(C)O)c3nn(C([2H])([2H])[2H])cc23)cc1C1CC1 (single isomer, unassigned) [Compound 147, 6-(2-cyclopropyl-6-fluoro-4-(7-(2-hydroxypropan-2-yl)-2-(methyl-d3)-2H-indazol-4-yl)benzyl)-6,7-dihydro-5H-pyrrolo[3,4-b]pyridin-5-one-7,7-d2] | 62 | 74 | 6190 | 43 | 
Cn1cc2c(-c3cc(F)c(CN4Cc5ncccc5C4=O)c(F)c3)ccc(C(C)(C)O)c2n1 [Compound 1, 6-(2,6-difluoro-4-(7-(2-hydroxypropan-2-yl)-2-methyl-2H-indazol-4-yl)benzyl)-6,7-dihydro-5H-pyrrolo[3,4-b]pyridin-5-one] | 78 | 59 | 2740 | 22 | 
Cc1cc(-c2ccc(C(C)(C)O)c3nn(C)cc23)cc(F)c1CN1Cc2ncccc2C1=O [Compound 2, 6-(2-Fluoro-4-(7-(2-hydroxypropan-2-yl)-2-methyl-2H-indazol-4-yl)-6-methylbenzyl)-6,7-dihydro-5H-pyrrolo[3,4-b]pyridin-5-one] | 87 | 65 | 8350 | 33 | 
Cn1cc2c(-c3cc(F)c(CN4Cc5ncccc5C4=O)c(C4CC4)c3)ccc(C(C)(C)O)c2n1 [Compound 3, 6-(2-cyclopropyl-6-fluoro-4-(7-(2-hydroxypropan-2-yl)-2-methyl-2H-indazol-4-yl)benzyl)-6,7-dihydro-5H-pyrrolo[3,4-b]pyridin-5-one] | 86 | 45 | 5220 | 47 | 
[2H]C([2H])([2H])n1cc2c(-c3cc(F)c(CN4Cc5ncccc5C4=O)c(F)c3)ccc(C(C)(C)O)c2n1 [Compound 4, 6-(2,6-difluoro-4-(7-(2-hydroxypropan-2-yl)-2-(methyl-d3)-2H-indazol-4-yl)benzyl)-6,7-dihydro-5H-pyrrolo[3,4-b]pyridin-5-one] | 83 | 124 | 1910 | 49 | 
CC(C)(O)c1ccc(-c2cc(F)c(CN3Cc4ncccc4C3=O)c(F)c2)cc1 [Compound 5, 6-((3,5-difluoro-4′-(2-hydroxypropan-2-yl)-[1,1′-biphenyl]-4-yl)methyl)-6,7-dihydro-5H-pyrrolo[3,4-b]pyridin-5-one] | 79 | 1460 |  |  | inactive
CC(C)(O)c1ccc(-c2cc(F)c(CN3Cc4ncccc4C3=O)c(F)c2)cn1 [Compound 6, 6-(2,6-difluoro-4-(6-(2-hydroxypropan-2-yl)pyridin-3-yl)benzyl)-6,7-dihydro-5H-pyrrolo[3,4-b]pyridin-5-one] | 80 | ≥ 10000 |  |  | inactive
Cc1cc(-c2ccc(C(C)(C)O)cc2)cc(F)c1CN1Cc2cccnc2C1=O [Compound 118, 6-((3-fluoro-4′-(2-hydroxypropan-2-yl)-5-methyl-[1,1′-biphenyl]-4-yl)methyl)-5,6-dihydro-7H-pyrrolo[3,4-b]pyridin-7-one] | 67 | 1650 |  |  | 
